How the values were obtained:
[1] = system: hESC-derived multipotent uncommitted neural precursors; experiment: Oligodendroglial differentiation of hESCs with retinoic acid and purmorphamine, propagation in low purmorphamine; assay type: cell-based, human
Method: To derive an expandable population of neural precursors enriched for oligodendroglial progenitors (committed), initial neuralization of hESCs was induced as above with or without noggin supplementation. After 2 weeks of culturing in NPM supplemented with mitogens +/−noggin the clusters were treated with RA (1-10 μM; preferably 1 μM) and the hedgehog agonist, Purmurphamine (Merck) (0.5-2 μM; preferably 0.5 μM) to induce ventral-caudal specification of the neuralized cells. Following 7-21 days, preferably 21 days of treatment, the cultures were further propagated for three to 20 more weeks as floating spheres in modified Sato medium supplemented with low concentrations of purmorphamine (0.2-0.5 μM; preferably 0.5 μM), bFGF (20 ng/ml), EGF (20 ng/ml), (NT3; 5 ng/ml) and ascorbic acid (200 nM). For final differentiation, the clusters were plated on poly-D-Lysine (10 μg/ml) and fibronectin (5 μg/ml) coated coverslips in modified Sato medium supplemented with NT3 ([…]), ascorbic acid (200 nM) T3 (40 ng/ml) IGF1 (10 ng/ml;) with or without Rock inhibitor (10 μM; Sigma) for 2-21 days.
To develop expandable cultures enriched for oligodendroglial committed progenitors, hESCs clusters were induced to differentiate as free floating clusters into multipotent uncommitted neural precursors as above with or without noggin. After two weeks of initial neural induction the multipotent uncommitted neural precursors were further cultured for 1-3 weeks, preferably 3 weeks, as floating spheres in modified Sato medium supplemented with mitogens, retinoic acid (RA) and the hedgehog (HH) agonist purmorphamine. During this culture period the early multipotent neural precursors gradually become enriched with Olig2+ oligodendroglial precursors (30-50% of total cells).
For further expansion of the oligodendroglial precursors, the floating spheres were propagated in Sato medium supplemented with mitogens, and low concentrations (0.5 μM) of purmorphamine. After 3-20 weeks of propagation as free floating clusters and plating on fibronectin for 24-48 hours, expression of the OPC markers Olig2 (FIG. 8A), PDGFRα (FIG. 8B) and NG2 (FIG. 8C) were detected in 30%, 20% and 20% of the differentiating cells, respectively. Following further 7-21 days of differentiation in the presence of NT3, AA, T3 and IGF1 +/− Rock inhibitor, markers of mature oligodendrocytes such as O4 (FIG. 8D), GalC (FIG. 8E) and MBP (FIG. 8F) were detected in 20%, 15% and 3% of the plated cells, respectively.

hESCs = experiment: In vitro oligodendroglial differentiation of hESCs following retinoic acid treatment; assay type: cell-based, human; conditions: RA treatment
Method: Derivation of enriched population of committed oligodendrocyte progenitor cells (OPCs): Initial neural differentiation of hESC was induced as described above for the derivation of enriched population of uncommitted neural precursors. Following two weeks of culturing of hESC clusters in NPM supplemented with noggin (700 ng/ml), and the oligodendroglial mitogens bFGF (20 ng/ml) and EGF (20 ng/ml), the cultures were treated with retinoic acid (RA) (sigma) (10 μM) to induce caudal specification of the neuralized cells. Following 7 days of RA treatment, cultures were propagated as floating spheres in the oligodendroglial specific, modified Sato medium supplemented with the oligodendroglial mitogens bFGF (20 ng/ml), EGF (20 ng/ml) and PDGF-AA (50 ng/ml), and the oligodendroglial survival and maturation factors neurotrophine 3 (NT3) (5 ng/ml) and triiodothyronine (T3) (40 ng/ml).
In vitro oligodendroglial differentiation of hESCs was examined. The experimental protocol included initial induction of human ESCs to differentiate as free floating clusters, under defined culture conditions, in the presence of noggin into early multipotent neural precursors according to the published protocols as described above. After two weeks, they were treated with retinoic acid (RA) and propagated as floating spheres in modified Sato medium and mitogens At sequential week intervals, differentiation was induced by plating on fibronectin and withdrawal of the mitogens, and the expression of oligodendroglial markers were analyzed by immunostaining. After three weeks of propagation as free floating clusters, followed by plating and differentiation for 48 hours, the differentiating cells expressed the oligodendroglial markers NG2 (12%) (FIGS. 7A,[…], 7D, 7F) GD3 (20%) (FIGS. 7B, 7C) and PDGFRα (15%) (FIGS. 7E, 7F). Although at this stage of three weeks propagation, when enrichment for OPCs was obtained, markers of mature oligodendrocytes such as O4 and GalC were not detected, even after 7-10 days of differentiation. Only in cultures that were propagated for more than 5 weeks and induced to differentiate for 7 days, O4 and GalC were expressed by 3% and 1% of differentiating cells, respectively (FIGS. 7G, 7I (O4) and FIGS. 7H, 7I (GalC). Nuclei in FIGS. 7C, 7F, 7G-7I were counter stained with DAPI.

[2] = after RA + purmorphamine, 3-20 weeks propagation with 0.5 μM purmorphamine, plated on fibronectin 24-48 hours
[3] = propagation with 0.5 μM purmorphamine, further 7-21 days differentiation with NT3, AA, T3, IGF1 +/- Rock inhibitor
[4] = propagated more than 5 weeks, differentiated 7 days
[5] = three weeks propagation as floating clusters, differentiation 48 hours

Row | SMILES | Olig2+ oligodendroglial precursors (of total cells) ([1]; 1-3 weeks as floating spheres in modified Sato medium with mitogens, RA and purmorphamine) | differentiating cells expressing NG2 [1, 2] | differentiating cells expressing Olig2 [1, 2] | differentiating cells expressing PDGFRα [1, 2] | plated cells expressing GalC [1, 3] | plated cells expressing MBP [1, 3] | plated cells expressing O4 [1, 3] | differentiating cells expressing GalC (hESCs; [4]) | differentiating cells expressing O4 (hESCs; [4]) | differentiating cells expressing GD3 (hESCs; [5]) | differentiating cells expressing NG2 (hESCs; [5]) | differentiating cells expressing PDGFRα (hESCs; [5])
1 | c1ccc2c(Oc3nc(Nc4ccc(N5CCOCC5)cc4)c4ncn(C5CCCCC5)c4n3)cccc2c1 [purmorphamine] | 30-50% | 20% | 30% | 20% | 15% | 3% | 20% | – | – | – | – | –
2 | CC1=C(/C=C/C(C)=C/C=C/C(C)=C/C(=O)O)C(C)(C)CCC1 [retinoic acid] | – | – | – | – | – | – | – | 1% | 3% | 20% | 12% | 15%
